In patent publication US9962369B2, “Methods and compositions for transdermal delivery” (SPRAYABLE HOLDINGS, INC., priority 2014, dated 2018):

Test: Transdermal delivery of melatonin: plasma level of melatonin after applying composition to skin of a subject
Conditions: control 2.0 ml of […] melatonin suspension in water, plasma level at 1, 2, 4, 8 hours
[1] = 0.375 mL of 7% helper ester + 0.8% melatonin in water on skin of the back (20 cm×20 cm)
[2] = 0.60 mL of 7% helper ester + 0.5% melatonin in water on skin of the back (20 cm×20 cm)
[3] = 0.3 mL of 7% helper ester + 1% melatonin in water on skin of the back (20 cm×20 cm)

CCN(CC)CCCOC(=O)c1ccccc1OC(C)=O [3-(Diethylamino)propyl 2-acetoxybenzoate]
transdermal delivery of melatonin compared to control composition (A) [1]: more efficient and effective transdermal delivery of melatonin

CCN(CC)CCCCOC(=O)C(C)c1ccc(CC(C)C)cc1 (centres unmarked) [4-(Diethylamino)butyl 2-(4-isobutylphenyl)propionate]
transdermal delivery of melatonin compared to control composition (A) [2]: more efficient and effective transdermal delivery of melatonin

CCN(CC)CCCCCOC(=O)C(C)c1ccc(CC(C)C)cc1 (centres unmarked) [5-(Diethylamino)pentyl 2-(4-isobutylphenyl)propionate]
transdermal delivery of melatonin compared to control composition (A) [2]: more efficient and effective transdermal delivery of melatonin

CC(=O)Oc1ccccc1C(=O)OCCCCCCN(C)C [6-(Dimethylamino)hexyl 2-acetoxybenzoate]
transdermal delivery of melatonin compared to control composition (A) [1]: more efficient and effective transdermal delivery of melatonin

CCCCCCOC(=O)[C@@H](N)[C@@H](C)CC [Isoleucine hexyl ester]
transdermal delivery of melatonin compared to control composition (A) [2]: more efficient and effective transdermal delivery of melatonin

CC[C@H](C)[C@H](N)C(=O)OC(C)C [Isoleucine isopropyl ester]
transdermal delivery of melatonin compared to control composition (A) [2]: more efficient and effective transdermal delivery of melatonin

CCCCCCOC(=O)[C@@H](N)CC(C)C [Leucine hexyl ester]
transdermal delivery of melatonin compared to control composition (A) [2]: more efficient and effective transdermal delivery of melatonin

CC(C)C[C@H](N)C(=O)OC(C)C [Leucine isopropyl ester]
transdermal delivery of melatonin compared to control composition (A) [2]: more efficient and effective transdermal delivery of melatonin

COC(=O)[C@@H](N)CC(C)C [Leucine methyl ester]
transdermal delivery of melatonin compared to control composition (A) [2]: more efficient and effective transdermal delivery of melatonin

CC(C)OC(=O)[C@@H](N)Cc1ccccc1 [Phenylalanine isopropyl ester]
transdermal delivery of melatonin compared to control composition (A) [2]: more efficient and effective transdermal delivery of melatonin

CCCCCCCCOC(=O)[C@@H](N)Cc1ccccc1 [Phenylalanine octyl ester]
transdermal delivery of melatonin compared to control composition (A) [2]: more efficient and effective transdermal delivery of melatonin

CCCCCCOC(=O)[C@@H]1CCCN1 [Proline hexyl ester]
transdermal delivery of melatonin compared to control composition (A) [2]: more efficient and effective transdermal delivery of melatonin

CC(C)OC(=O)[C@@H]1CCCN1 [Proline isopropyl ester]
transdermal delivery of melatonin compared to control composition (A) [2]: more efficient and effective transdermal delivery of melatonin

COC(=O)[C@@H]1CCCN1 [Proline methyl ester]
transdermal delivery of melatonin compared to control composition (A) [2]: more efficient and effective transdermal delivery of melatonin

CC(C)OC(=O)[C@@H](N)Cc1ccc(O)cc1 [Tyrosine isopropyl ester]
transdermal delivery of melatonin compared to control composition (A) [3]: more efficient and effective transdermal delivery of melatonin

CCCCCOC(=O)[C@@H](N)Cc1ccc(O)cc1 [Tyrosine pentyl ester]
transdermal delivery of melatonin compared to control composition (A) [3]: more efficient and effective transdermal delivery of melatonin

CCCOC(=O)[C@@H](N)Cc1ccc(O)cc1 [Tyrosine propyl ester]
transdermal delivery of melatonin compared to control composition (A) [3]: more efficient and effective transdermal delivery of melatonin
